For 25 molecules, IC50 results are on record in patent US10005767B2, “Compositions and methods for inhibition of the JAK pathway” (Rigel Pharmaceuticals, Inc., priority 2009, dated 2018).

This experiment relates to human primary T-cells, IL-2 stimulated proliferation (JAK-1 and JAK-3 dependent; reported as JAK3 activity). The experiment in a line: Human primary T-cell proliferation stimulated by IL-2 (Example 3). The following applies: tested under conditions described in Example 3 (IL-2 stimulated human primary T-cell proliferation), read-out: ability to inhibit JAK3 activity, IC50 range (Table V). The format is cell-based. Summed up:
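Peripheral-blood human T-cells pre-activated via TCR/CD28, IL-2-starved overnight, then cultured 72 h at 37 °C with compound in Yssel's medium containing IL-2 (80 U/mL in cell suspension). Proliferation read as viable-cell ATP by CellTiter-Glo luminescence; reduction versus control taken as JAK pathway inhibition.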

Molecules are shown by their SMILES. Where two headings read alike, the source gives them in different places.

As to `Cc1cnc(Nc2cc(Cl)cc(Cl)c2)nc1Nc1ccc2oc(=O)[nH]c2c1` [Compound I-184, 5-[2-(3,5-Dichloro-phenylamino)-5-methyl-pyrimidin-4-ylamino]-3H-benzooxazol-2-one], the IC50 (Homo sapiens, T-cell) was less than 500 nM.

`COc1cncc(Nc2ncc(C)c(Nc3ccc4oc(=O)[nH]c4c3)n2)c1` [II-152, N2-(5-methoxypyridin-3-yl)-5-methyl-N4-(2-oxo-2,3-dihydro-1,3-benzoxazol-5-yl)-2,4-pyrimidinediamine]: for the setting “Homo sapiens, T-cell”, the IC50 is more than 10000 nM.

For `Cc1cnc(Nc2cc(C)c(C)c(C)c2)nc1Nc1cc(Cl)c2oc(=O)[nH]c2c1` [Compound I-522, N4-(7-chloro-2-oxo-2,3-dihydro-1,3-benzoxazol-5-yl)-5-methyl-N2-(3,4,5-trimethyl)phenyl-2,4-pyrimidinediamine], the IC50 is less than 500 nM.

In the case of `Cc1cnc(Nc2ccc(N3CCC(F)(F)CC3)c(F)c2)nc1Nc1ccc2oc(=O)[nH]c2c1` [Compound I-275, N2-[4-(4,4-difluoropiperidinyl)-3-fluoro]phenyl-5-methyl-N4-(2-oxo-2,3-dihydro-1,3-benzoxazol-5-yl)-2,4-pyrimidinediamine], the IC50 was less than 500 nM.

As for `Cc1cnc(Nc2ccc3c(c2)CCCN(C)C3=O)nc1Nc1ccc2oc(=O)[nH]c2c1` [IV-21, 5-(5-methyl-2-(2-methyl-1-oxo-2,3,4,5-tetrahydro-1H-benzo[c]azepin-7-ylamino)pyrimidin-4-ylamino)benzo[d]oxazol-2(3H)-one], under “Homo sapiens, T-cell”, the IC50 was less than 500 nM.

Regarding `Cc1cc(C)cc(Nc2ncc(C)c(Nc3cc(F)c4oc(=O)[nH]c4c3)n2)c1` [Compound I-488, 5-(2-(3,5-dimethylphenylamino)-5-methylpyrimidin-4-ylamino)-7-fluorobenzo[d]oxazol-2(3H)-one], the half-maximal inhibitory concentration (IC50) (Homo sapiens, T-cell) was less than 500 nM.

With `Cn1c(=O)oc2cc(Nc3nc(Nc4ccc(S(N)(=O)=O)cc4)ncc3F)ccc21` [Compound I-58], the IC50 was more than 10000 nM.

In the case of `Cc1cc(Nc2ncc(C)c(Nc3ccc4oc(=O)[nH]c4c3)n2)ccc1F` [Compound I-362, N2-(4-fluoro-3-methyl)phenyl-5-methyl-N4-(2-oxo-2,3-dihydro-1,3-benzoxazol-5-yl)-2,4-pyrimidinediamine], the IC50 is less than 500 nM.

With `Cc1cnc(Nc2ccc(NS(C)(=O)=O)cc2)nc1Nc1ccc2oc(=O)n(C)c2c1` [Compound I-72, N2-((4-methylsulfonylamino)phenyl)-N4-(3-methyl-2-oxo-2,3-dihydrobenzo[d]oxazol-5-yl)-5-methylpyrimidine-2,4-diamine], the IC50 was less than 500 nM.

`Cc1ccc(Nc2ncc(F)c(Nc3ccc4oc(=O)n(C)c4c3)n2)cc1NS(C)(=O)=O` [Compound I-85, N2-((3-methylsulfonylamino-4-methyl)phenyl)-N4-(3-methyl-2-oxo-2,3-dihydrobenzo[d]oxazol-5-yl)-5-fluoropyrimidine-2,4-diamine]: the IC50 lay in the range of 500 to 5000 nM.

Turning to `Cc1cnc(Nc2cnc(N3CCN(C)CC3)c(C(F)(F)F)c2)nc1Nc1ccc2oc(=O)[nH]c2c1` [II-39, N4-(benzo[d]oxazolin-2(3H)-on-5-yl)-N2-[3-trifluoromethyl-2-(4-methylpiperazin-1-yl)pyridin-5-yl]-5-methylpyrimidine-2,4-diamine], the IC50 (Homo sapiens, T-cell) is less than 500 nM.

Consider `CN1CCN(c2ccc(Nc3ncc(F)c(Nc4ccc5oc(=O)[nH]c5c4)n3)cn2)CC1` [II-14, N4-(benzo[d]oxazol-2(3H)-on-5-yl)-N2-[2-(4-methylpiperazin-1-yl)pyridin-5-yl]-5-fluoropyrimidine-2,4-diamine], for which the IC50 (Homo sapiens, T-cell) is less than 500 nM.

Regarding `Cc1cnc(Nc2ccc3c(c2)CCC(N2CCCC2)CC3)nc1Nc1ccc2oc(=O)[nH]c2c1` (stereo not shown) [IV-1, N4-(benzo[d]oxazol-2(3H)-on-5-yl)-N2-(7-(pyrrolidin-1-yl)-6,7,8,9-tetrahydro-5H-benzo[7]annulen-2-yl)-5-methylpyrimidine-2,4-diamine], the IC50 (Homo sapiens, T-cell) is less than 500 nM.

For the molecule `Cc1cnc(Nc2ccc3c(c2)OC2(CCCCC2)O3)nc1Nc1ccc2oc(=O)[nH]c2c1` [IV-39, N2-[spiro(2,1′-cyclohexan)-1,3-benzodioxol-5-yl]-5-methyl-N4-(2-oxo-2,3-dihydro-1,3-benzoxazol-5-yl)-2,4-pyrimidinediamine], the IC50 is less than 500 nM.

`Cc1cnc(Nc2ccc(C#N)c(C(F)(F)F)c2)nc1Nc1ccc2oc(=O)[nH]c2c1` [Compound I-303, N2-(4-cyano-3-trifluoromethyl)phenyl-5-methyl-N4-(2-oxo-2,3-dihydro-1,3-benzoxazol-5-yl)-2,4-pyrimidinediamine]: the IC50 is less than 500 nM.

Regarding `Cc1cnc(Nc2ccc(OCCCO)nc2)nc1Nc1ccc2oc(=O)[nH]c2c1` [II-148, N2-[2-(3-hydroxy)propoxypyridin-5-yl]-5-methyl-N4-(2-oxo-2,3-dihydro-1,3-benzoxazol-5-yl)-2,4-pyrimidinediamine], the IC50 lay within 500 to 5000 nM.

As to `Cc1cnc(Nc2ccc(N3CC4(C)CN(C)CC(C)(C3)C4)c(F)c2)nc1Nc1ccc2oc(=O)[nH]c2c1` [Compound I-6, N4-(benzo[d]oxazol-2(3H)-on-5-yl)-N2-(3-fluoro-4-(1,5,7-trimethyl-3,7-diazabicyclo[3.3.1]nonan-3-yl)phenyl)-5-methylpyrimidine-2,4-diamine], the IC50 (Homo sapiens, T-cell) was less than 500 nM.

Regarding `Cc1cnc(Nc2cc(F)c(F)c(F)c2)nc1Nc1ccc2oc(=O)[nH]c2c1` [Compound I-408, 5-methyl-N4-(2-oxo-2,3-dihydro-1,3-benzoxazol-5-yl)-N2-(3,4,5-trifluoro)phenyl-2,4-pyrimidinediamine], the half-maximal inhibitory concentration (IC50) is less than 500 nM.

Take `COCCN1C(=O)COc2cc(Nc3ncc(C)c(Nc4ccc5oc(=O)[nH]c5c4)n3)ccc21` [IV-44, N2-[4-(2-methoxyethyl)-2H-1,4-benzoxazin-3 (4H)-one-7-yl]-5-methyl-N4-(2-oxo-2,3-dihydro-1,3-benzoxazol-5-yl)-2,4-pyrimidinediamine]: the IC50 (Homo sapiens, T-cell) was less than 500 nM.

As to `CS(=O)(=O)Nc1ccc(Nc2ncc(F)c(Nc3ccc4oc(=O)[nH]c4c3)n2)cc1` [Compound I-53], the IC50 is less than 500 nM.

In the case of `Cc1cnc(Nc2cccc(S(N)(=O)=O)c2)nc1Nc1ccc2[nH]c(=O)oc2c1` [Compound I-98, N2-((3-aminosulfonyl)phenyl)-N4-(2-oxo-2,3-dihydrobenzo[d]oxazol-6-yl)-5-methylpyrimidine-2,4-diamine], the IC50 is less than 500 nM.

As to `Cn1c(=O)oc2cc(Nc3nc(Nc4ccc(S(C)(=O)=O)cc4)ncc3F)ccc21` [Compound I-60], the IC50 is more than 10000 nM.

As for `Cc1cnc(Nc2cc(OCC3CC3)cc(C(F)(F)F)c2)nc1Nc1ccc2oc(=O)[nH]c2c1` [Compound I-225, 5-(2-(3-(cyclopropylmethoxy)-5-(trifluoromethyl)phenylamino)-5-methylpyrimidin-4-ylamino)benzo[d]oxazol-2(3H)-one], the IC50 (Homo sapiens, T-cell) is 500 to 5000 nM.

Consider `Cc1cnc(Nc2ccc(N3CCNCC3)nc2)nc1Nc1ccc2oc(=O)[nH]c2c1` [II-10, N4-(benzo[d]oxazol-2(3H)-on-5-yl)-N2-(6-(piperazin-1-yl)pyridin-3-yl)-5-methylpyrimidine-2,4-diamine], for which, for the setting “Homo sapiens, T-cell”, the IC50 is less than 500 nM.

As to `Cc1cnc(Nc2ccc3c(cnn3C)c2)nc1Nc1ccc2oc(=O)[nH]c2c1` [IV-42, 5-methyl-N2-(1-methylindazol-5-yl)-N4-(2-oxo-2,3-dihydro-1,3-benzoxazol-5-yl)-2,4-pyrimidinediamine], the IC50 (Homo sapiens, T-cell) is less than 500 nM.
